Patent US10856562B2, “Flavor composition and edible compositions containing same” (MARS, INCORPORATED, priority 2013, dated 2020)
Square brackets hold non-standard residues; d marks the D form. Ends that are not written are not given here. pGlu = O=C1CC[C@@H](C(=O)O)N1

Key:
[1] = Salty taste of NaCl-reduced potato chips with added peptide; type: in vivo; details: 50% salt reduction, 1150 ppb peptide
Experimental: All Ingredients were added into a plastic container and mixed gently.
Two batches of potato chips were made: a control with 100% NaCl (0.5 g) and a sample with 50% NaCl (0.25 g) and 1150 ppb pGlu-Val-Leu.
A 1000 ppm stock of pGlu-Val-Leu in salt was made to be added to the potato chips.

[2] = Salty taste of NaCl-reduced roasted chicken flavored rice with added peptide; type: in vivo; details: 50% NaCl reduction, 50 ppb peptide
Experimental: All Ingredients, except the rice, were placed into a container and mixed. The mixture was heated in a microwave for a total of one minute for two 30 second intervals. The rice and mixture were then mixed in a bowl. The cooking bowl was placed into a rice cooker and the cook cycle was started. After 36 minutes the rice was mixed and then allowed to cook for the remaining time for a total time of 49 minutes.
Three batches of rice were made: a control with 100% NaCl (4.7696 g), a sample with 50% NaCl (2.38 g), and the last sample had 50% NaCl (2.38 g) with 50 ppb of pGlu-Val-Leu.
Three batches of rice were made: a control with 100% NaCl, a sample with 50% NaCl, and a sample that had 50% NaCl (2.38 g) with 50 ppb of pGlu-Val-Val.
Two batches of rice were made: a control with 50% NaCl (2.38 g), and the other sample had 50% NaCl (2.38 g) with 50 ppb of pGlu-Val and 50 ppb of pGlu-Pro-Glu. Two stock solutions were made to be added to the rice: a 200 ppm stock solution of pGlu-Val in water and a 200 ppm stock solution of pGlu-Pro-Glu in water, as shown in table 44.
Three batches of rice were made: a control with 100% NaCl (4.7696 g), a sample with 40% NaCl (1.9 g), and the last sample had 40% NaCl (1.9 g) with 1 ppb of pGlu-Val-Leu and 1 ppb of pGlu-Val-Cys. […]

[pGlu]-Val-Leu [SE-13]
Salty taste compared to control with 100% NaCl [1]: saltier than the control

[pGlu]-Val-Val [SE-17]
Aftertaste [2]: had a salty aftertaste
